Measured values from patent US20240301501A1, “A METHOD FOR ASSESSING THE POTENTIAL EFFECT OF THERAPEUTICS ON AN INDIVIDUAL” (AGENCY FOR SCIENCE TECHNOLOGY AND RESEARCH, priority 2022, published 2024).
Where two headings read alike, the source gives them in different places. Values belong to the compound of their own block, whether it stands above or below them.

Tests used:
[1] = Measurement of tamoxifen metabolites in finger-prick blood (VAMS, UPLC-MS/MS); type: in vivo, human (Indonesian ER+ breast cancer patients); details: for range of metabolite levels before dose adjustment / range of metabolite levels after dose adjustment: IM patients (n=26); for range of metabolite levels before dose adjustment: tamoxifen 20 mg daily; for concentration at 8 weeks: human, whole blood (finger-prick, VAMS), oral, 40 mg daily, read-out: range of metabolite levels after dose adjustment; for range of metabolite levels after dose adjustment: tamoxifen 40 mg daily for two months
Method: Finger-prick blood sample was obtained using Volumetric Absorptive Microsampling (VAMS) technique. VAMS extraction was performed in methanol by sonication-assisted extraction method for 25 minutes after 2 hours of VAMS drying. Separation was carried out using Acquity UPLC BEH C1s column (2.1×100 mm; 1.7 μm), with a flow rate of 0.2 mL/minute, and the mobile phase gradient of formic acid 0.1% combined with formic acid 0.1% in acetonitrile for 5 minutes. The UPLC-MS/MS Waters Xevo TQD Triple Quadrupole with MassLynx Software controller (Waters, Milford, USA) was employed in metabolites measurement. Mass detection was carried out utilizing Triple Quadrupole (TOD) with Multiple Reaction Monitoring (MRM) analysis modes and an electrospray ionization source using positive mode. The method was developed in the Bioavailability and Bioequivalence Laboratory of Universitas Indonesia and validated according to FDA and EMA guidelines. The multiple reaction monitoring (MRM) value were set at m/z 372.28>72.22 for TAM; 374.29>58.22 for END; 388.29>72.19 for 4-HT; 358.22>58.09 for NDT; and 260.20>116.20 for propranolol as the internal standard.
(§1) This group of patients were determined based on clinical judgement according to the available guidelines by The National Surgical Oncologist Organization and Ministry of Health in Indonesia (Komite Penanggulangan Kanker Nasional, n.d.), National Comprehensive Cancer Network (NCCN, 2021), and British Columbia Cancer Agency.
(§2) Data and statistical analysis were performed using Microsoft® Excel® for Microsoft 365 and R version 4.0.3. Deviation from Hardy-Weinberg equilibrium was performed on the haplotype frequencies using the chi-square statistical test, where Bonferonni correction was applied to determine the p-value threshold for significant deviation. Analysis of Variance (ANOVA) test was used to see if metabolite levels distribution at baseline were statistically different across all metabolites, followed by a paired T-test between each pair of metabolites when significance was found. Distribution of metabolite levels before and after dose adjustment was compared using a T-test, and the same test was used to compare the distribution of metabolite levels in IMs post-dose adjustment against NMs (baseline). Concerning symptoms related to endocrine therapy post-dose adjustment on IMs were compared against NMs. Chi-square test was performed per symptom to check for the difference between the two groups.

[2] = Endocrine symptoms / side effects of tamoxifen therapy, FACT-ES questionnaire; type: in vivo, human (Indonesian ER+ breast cancer patients)
Method: as §1, §2

[3] = cited from earlier work
[4] = CYP2D6 Intermediate Metabolizer (N = 61), baseline
[5] = CYP2D6 Normal Metabolizer (N = 81), baseline
[6] = CYP2D6 Poor Metabolizer (N = 2), baseline
[7] = IM participants, 40 mg tamoxifen daily (N = 22), eight weeks after dose adjustment
[8] = IM participants, 40 mg tamoxifen daily, eight weeks after dose adjustment
[9] = IMs, 40 mg tamoxifen daily, n=26
[10] = NM participants, 20 mg tamoxifen daily (N = 31)
[11] = NMs, 20 mg tamoxifen daily, n=31

Compound: CC/C(=C(\c1ccc(O)cc1)c1ccc(OCCN(C)C)cc1)c1ccccc1 [4OH-tam]
Peripheral Whole Blood Concentration, Median [1, 4]: 3.27 ng/mL
Peripheral Whole Blood Concentration, Range [1, 4]: 1.5 to 9.31 ng/mL
Peripheral Whole Blood Concentration, Median [1, 5]: 3.07 ng/mL
Peripheral Whole Blood Concentration, Range [1, 5]: 1.5 to 7.66 ng/mL
Peripheral Whole Blood Concentration, Median [1, 6]: 3.24 ng/mL
Peripheral Whole Blood Concentration, Range [1, 6]: 3.06 to 3.43 ng/mL

Compound: 4-hydroxytamoxifen
range of metabolite levels before dose adjustment [1]: 1.5 to 9.31 ng/mL
range of metabolite levels after dose adjustment [1]: 3.34 to 12.99 ng/mL

Compound: CC/C(=C(\c1ccccc1)c1ccc(OCCNC)cc1)c1ccccc1 [N-desmethyltamoxifen]
range of metabolite levels before dose adjustment [1]: 77.61 to 337.29 ng/mL
range of metabolite levels after dose adjustment [1]: 236.8 to 501.9 ng/mL

The next lines start with results.

Peripheral Whole Blood Concentration, Median [1, 4]: 81.72 ng/mL
Peripheral Whole Blood Concentration, Range [1, 4]: 14.22 to 210.39 ng/mL
Peripheral Whole Blood Concentration, Median [1, 5]: 77.46 ng/mL
Peripheral Whole Blood Concentration, Range [1, 5]: 31.22 to 170.82 ng/mL
Peripheral Whole Blood Concentration, Median [1, 6]: 91.49 ng/mL
Peripheral Whole Blood Concentration, Range [1, 6]: 67.49 to 115.48 ng/mL
range of metabolite levels before dose adjustment [1]: 14.22 to 210.39 ng/mL
concentration at 8 weeks [1]: 80.6 to 255 ng/mL
Compound: CC/C(=C(\c1ccccc1)c1ccc(OCCN(C)C)cc1)c1ccccc1 [tamoxifen]
toxicity or side effects on dose escalation ([2]; 40 mg daily versus 20 mg daily, eight weeks after dose adjustment): did not increase potential toxicity or side effects
Cold Sweats: Patients reported side effect (%) [2, 7]: 19.23%
Diarrhea: Patients reported side effect (%) [2, 7]: 0.00%
Headaches: Patients reported side effect (%) [2, 7]: 53.85%
Hot Flashes: Patients reported side effect (%) [2, 7]: 50.00%
Lightheaded (dizzy): Patients reported side effect (%) [2, 7]: 34.62%
Mood swings: Patients reported side effect (%) [2, 7]: 65.38%
Pain in joints: Patients reported side effect (%) [2, 7]: 50.00%
Pain or discomfort with intercourse: Patients reported side effect (%) [2, 7]: 3.85%
Breast sensitivity/tenderness: Patients reported side effect (%) [2, 8]: 53.85%
Irritable: Patients reported side effect (%) [2, 8]: 61.54%
Lost interest in sex: Patients reported side effect (%) [2, 8]: 15.38%
Night sweats: Patients reported side effect (%) [2, 8]: 26.92%
Vaginal bleeding or spotting: Patients reported side effect (%) [2, 8]: 23.08%
Vaginal discharge: Patients reported side effect (%) [2, 8]: 42.31%
Vaginal dryness: Patients reported side effect (%) [2, 8]: 11.54%
Vaginal itching/irritation: Patients reported side effect (%) [2, 8]: 15.38%
Vomiting: Patients reported side effect (%) [2, 8]: 3.85%
Weight gain: Patients reported side effect (%) [2, 8]: 65.38%
breast sensitivity or tenderness, participants reporting [2, 9]: 53.85%
cold sweats, participants reporting [2, 9]: 19.23%
headaches, participants reporting [2, 9]: 53.85%
hotflush, participants reporting [2, 9]: 50%
irritability, participants reporting [2, 9]: 61.54%
lightheaded/dizziness, participants reporting [2, 9]: 34.62%
lost interest in sex, participants reporting [2, 9]: 15.38%
mood swings, participants reporting [2, 9]: 65.83%
night sweats, participants reporting [2, 9]: 26.92%
pain in joints, participants reporting [2, 9]: 50%
pain or discomfort during intercourse, participants reporting [2, 9]: 3.85%
vaginal bleeding or spotting, participants reporting [2, 9]: 23.08%
vaginal discharge, participants reporting [2, 9]: 42.31%
vaginal dryness, participants reporting [2, 9]: 11.54%
vaginal itching or irritation, participants reporting [2, 9]: 15.38%
vomiting, participants reporting [2, 9]: 3.85%
weight gain, participants reporting [2, 9]: 65.83%
diarrhea, participants reporting ([2]; IMs, 40 mg tamoxifen daily, post-dose adjustment): No post-dose adjustment participants reported diarrhea
Breast sensitivity/tenderness: Patients reported side effect (%) [2, 10]: 41.94%
Cold Sweats: Patients reported side effect (%) [2, 10]: 12.90%
Diarrhea: Patients reported side effect (%) [2, 10]: 3.23%
Headaches: Patients reported side effect (%) [2, 10]: 29.03%
Hot Flashes: Patients reported side effect (%) [2, 10]: 35.48%
Irritable: Patients reported side effect (%) [2, 10]: 58.06%
Lightheaded (dizzy): Patients reported side effect (%) [2, 10]: 35.48%
Lost interest in sex: Patients reported side effect (%) [2, 10]: 64.52%
Mood swings: Patients reported side effect (%) [2, 10]: 74.19%
Night sweats: Patients reported side effect (%) [2, 10]: 29.03%
Pain in joints: Patients reported side effect (%) [2, 10]: 67.74%
Pain or discomfort with intercourse: Patients reported side effect (%) [2, 10]: 51.61%
Vaginal bleeding or spotting: Patients reported side effect (%) [2, 10]: 16.13%
Vaginal dryness: Patients reported side effect (%) [2, 10]: 32.26%
Vaginal itching/irritation: Patients reported side effect (%) [2, 10]: 22.58%
Vomiting: Patients reported side effect (%) [2, 10]: 6.45%
Weight gain: Patients reported side effect (%) [2, 10]: 64.52%
breast sensitivity or tenderness, respondents reporting [2, 11]: 41.94%
cold sweats, respondents reporting [2, 11]: 12.9%
diarrhea, respondents reporting [2, 11]: 3.23%
headaches, respondents reporting [2, 11]: 29.03%
hotflush, respondents reporting [2, 11]: 35.48%
irritability, respondents reporting [2, 11]: 58.06%
lightheaded/dizziness, respondents reporting [2, 11]: 35.48%
lost interest in sex, respondents reporting [2, 11]: 64.52%
mood swings, respondents reporting [2, 11]: 74.19%
night sweats, respondents reporting [2, 11]: 29.03%
pain in joints, respondents reporting [2, 11]: 67.74%
pain or discomfort during intercourse, respondents reporting [2, 11]: 51.61%
vaginal bleeding or spotting, respondents reporting [2, 11]: 16.13%
vaginal dryness, respondents reporting [2, 11]: 32.26%
vaginal itching or irritation, respondents reporting [2, 11]: 22.58%
vomiting, respondents reporting [2, 11]: 6.45%
thrombophlebitis, thrombosis, endometriosis, and endometrial cancer ([2]; observed population, short follow up): none of these side effects were observed

Peripheral Whole Blood Concentration, Median [1, 4]: 8.33 ng/mL
Peripheral Whole Blood Concentration, Range [1, 4]: 3.17 to 22.97 ng/mL
Peripheral Whole Blood Concentration, Median [1, 5]: 11.98 ng/mL
Peripheral Whole Blood Concentration, Range [1, 5]: 3.55 to 34.77 ng/mL
Peripheral Whole Blood Concentration, Median [1, 6]: 4.52 ng/mL
Peripheral Whole Blood Concentration, Range [1, 6]: 3.94 to 5.11 ng/mL
range of metabolite levels before dose adjustment [1]: 3.17 to 22.97 ng/mL
endoxifen levels in NMs at baseline ([1]; NM patients (n=81), tamoxifen 20 mg/day, baseline): 3.55 to 34.77 ng/mL
concentration at 8 weeks [1]: 7.68 to 23.4 ng/mL
average endoxifen level of IMs ([1]; this study, IMs): 9.6 ng/mL
Compound: CC/C(=C(\c1ccc(O)cc1)c1ccc(OCCNC)cc1)c1ccccc1 [endoxifen, 4-hydroxy-N-desmethyltamoxifen]
average endoxifen level of IMs ([3]; previous study): 8.1 ng/mL
range of endoxifen level ([3]; study in Singaporean population): 1.74 to 42.8 ng/mL
range of endoxifen level ([3]; study in Swedish population): 2.3 to 16 ng/mL

Peripheral Whole Blood Concentration, Median [1, 4]: 241.55 ng/mL
Peripheral Whole Blood Concentration, Range [1, 4]: 77.61 to 337.29 ng/mL
Peripheral Whole Blood Concentration, Median [1, 5]: 240.59 ng/mL
Peripheral Whole Blood Concentration, Range [1, 5]: 80.63 to 321.88 ng/mL
Peripheral Whole Blood Concentration, Median [1, 6]: 276.45 ng/mL
Peripheral Whole Blood Concentration, Range [1, 6]: 212.5 to 340.41 ng/mL
Compound: CC/C(=C(\c1ccccc1)c1ccc(OCCNC)cc1)c1ccccc1 [ND-tam]
